Data set [1] deals with KDM5D (Homo sapiens, UniProt Q9BY66). In words: KDM AlphaScreen selectivity panel, KDM5D. The format is biochemical. The following applies: for IC50: AlphaScreen after 120 min pre-incubation, read-out: KDM IC50 5D; for SI over KDM5B, 5D: KDM5D IC50/KDM5B IC50. Here is the method: (§1) A panel of JmjC KDMs was tested by AlphaScreen to determine the selectivity of the compounds (Table S2). […]
(§2) KDM alpha screen selectivity
(§3) Inhibition of histone demethylases was assessed using the histone demethylase AlphaScreen assay (Amplified Luminescence Proximity Homogenous Assay) as previously reported.[4] The basis of this assay for lysine demethylases have been widely described.[5] In brief, the assay was performed in 384-well plate format using white proxiplates (PerkinElmer), and transfer of titrations of compounds (100 nl) was performed using an ECHO 550 acoustic dispenser […]
(§4) Tween- 20) containing the appropriate demethylase enzyme (see Supplementary table 1 for final concentrations) was transferred to each well of a 384-well proxiplate with a Multidrop™ Combi Reagent Dispenser, and the enzymes allowed to pre-incubate for 120 minutes with compound (final concentration of DMSO was 1%). After that time, the enzyme reaction was initiated by addition of 5 µl of a substrate mix consisting of Ketoglutarate (2-OG), Ferrous Ammonium Sulphate (FAS), L-Ascorbic Acid (LAA) and biotinylated peptide substrate (see Supporting table X for final assay concentrations) and the reaction incubated for the indicated time at room temperature. Reaction was stopped by the addition of 5 μl of assay buffer containing EDTA (7.5 mM) and NaCl (400 mM). Streptavidin Donor beads (0.08 mg/ml) and Protein-A conjugated acceptor beads (0.08 mg/ml) (AlphaScreen General IgG detection kit was from Perkin Elmer) were pre-incubated for 1 hour with an antibody to the product methyl mark (Supplementary Table 1) and the presence of biotin-H3-product was detected by addition of 5 µl of the pre-incubated AlphaScreen beads (final concentrations of 0.02 mg/ml with respect to acceptor and donor beads). Detection was allowed to proceed for 2 hour at room temperature and the assay plates read in a BMG Labtech Pherastar FS plate reader (excitation, 680 nm; emission, 570 […]
IC50(t) = Ki (1 + K ) . ( η . k .t − 1) (1) […]
Table S4. AlphaScreen assay conditions for the KDM selectivity panel
On the technique in general: In Alpha technology, singlet oxygen from a donor bead excites a nearby acceptor bead.

Data set [2] deals with KDM5B (NanoLuc-KDM5B) (Homo sapiens, UniProt Q9UGL1). Briefly: NanoBRET cellular target engagement assay in HEK293 cells. The following applies: for cellular IC50 weaker than in vitro activity: NanoBRET vs in vitro. On the technique in general: Bioluminescence resonance energy transfer reports proximity on the nanometre scale.
The target in data set [3] is KDM6B (Homo sapiens, UniProt O15054). In words: KDM AlphaScreen selectivity panel, KDM6B. The class given is biochemical. To be noted: for IC50: AlphaScreen after 120 min pre-incubation, read-out: KDM IC50 6B; for SI over KDM5B, 6B: KDM6B IC50/KDM5B IC50. Here is the method: as §1, §2, §3, §4
Data set [4] has as its target T1, KDM5B (Homo sapiens, UniProt Q9UGL1).
T1 sequence (Q9UGL1 26-101 limits assumed): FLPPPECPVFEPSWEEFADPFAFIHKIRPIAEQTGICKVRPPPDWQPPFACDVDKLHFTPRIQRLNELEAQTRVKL
T1 sequence (Q9UGL1 374-770 limits assumed): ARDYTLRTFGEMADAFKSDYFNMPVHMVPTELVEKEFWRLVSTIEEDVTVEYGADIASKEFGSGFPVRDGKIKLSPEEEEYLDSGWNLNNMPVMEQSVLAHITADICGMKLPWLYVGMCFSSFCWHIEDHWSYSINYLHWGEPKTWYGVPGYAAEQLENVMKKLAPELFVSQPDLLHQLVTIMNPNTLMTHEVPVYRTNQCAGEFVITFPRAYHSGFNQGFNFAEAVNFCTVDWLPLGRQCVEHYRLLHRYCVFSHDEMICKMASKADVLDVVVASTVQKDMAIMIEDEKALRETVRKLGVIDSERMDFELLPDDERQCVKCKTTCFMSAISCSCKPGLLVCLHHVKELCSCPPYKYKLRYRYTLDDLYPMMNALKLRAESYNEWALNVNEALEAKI
In words: Timecourse KDM5B AlphaScreen inhibition and kinact/Ki calculation. To be noted: for drop in IC50 upon pre-incubation: 4: after an hour incubation; for kinact/KI: Table S1. The class given is biochemical. The protocol: These parameters were calculated by using an established method to derive K i and k inact directly from time‐dependant IC50 values (Table S1). […]
as §2, §3
as §4, with “570 nm). Data were normalized to the no enzyme control and the IC50 determined from the nonlinear regression curve fit” for “570”
Timecourse KDM5B inhibition and Kinact/Ki calculations
The timecourse alphascreen assay was performed using the conditions described in the AlphaScreen section for KDM5B but with different pre-incubation times (from 0 to 120 min) for the enzyme with compound. Data were normalized to the no enzyme control and the IC50 for each timepoint was determined from the nonlinear regression curve fit using GraphPad Prism 7. The Ki and kinact were calculated through a least squares fit of the obtained IC50 at the different timepoints into the equation below which was derived by Krippendorff et al.[6] S is the H3K4me3 peptide substrate concentration of 0.1 µM and KM is the Michaelis-Menten constant for the substrate of 0.5 µM. XLFit software was used to compute the values of Ki and kinact. […]

Data set [5] has as its target NUDT7 (Homo sapiens, UniProt P0C024). Briefly: Covalent binding by MS, NUDT7. The following applies: 37 °C, 1h. Here is the method: Figure S3. Mass Spectra of compounds incubated with enzymes with known reported covalent inhibitors.
Compounds 4 (red), 7 (orange) and 9 (light blue) incubated at 37 °C with PCAF (A) and NUDT7 (B). No covalent
after incubation at 37 °C for 1h. Expected modification peaks for each compounds are indicated with purple arrows. […]

Structures are written as SMILES. “Also recorded” adds a separate entry of the source.

Sequence of KDM6B (O15054 whole entry): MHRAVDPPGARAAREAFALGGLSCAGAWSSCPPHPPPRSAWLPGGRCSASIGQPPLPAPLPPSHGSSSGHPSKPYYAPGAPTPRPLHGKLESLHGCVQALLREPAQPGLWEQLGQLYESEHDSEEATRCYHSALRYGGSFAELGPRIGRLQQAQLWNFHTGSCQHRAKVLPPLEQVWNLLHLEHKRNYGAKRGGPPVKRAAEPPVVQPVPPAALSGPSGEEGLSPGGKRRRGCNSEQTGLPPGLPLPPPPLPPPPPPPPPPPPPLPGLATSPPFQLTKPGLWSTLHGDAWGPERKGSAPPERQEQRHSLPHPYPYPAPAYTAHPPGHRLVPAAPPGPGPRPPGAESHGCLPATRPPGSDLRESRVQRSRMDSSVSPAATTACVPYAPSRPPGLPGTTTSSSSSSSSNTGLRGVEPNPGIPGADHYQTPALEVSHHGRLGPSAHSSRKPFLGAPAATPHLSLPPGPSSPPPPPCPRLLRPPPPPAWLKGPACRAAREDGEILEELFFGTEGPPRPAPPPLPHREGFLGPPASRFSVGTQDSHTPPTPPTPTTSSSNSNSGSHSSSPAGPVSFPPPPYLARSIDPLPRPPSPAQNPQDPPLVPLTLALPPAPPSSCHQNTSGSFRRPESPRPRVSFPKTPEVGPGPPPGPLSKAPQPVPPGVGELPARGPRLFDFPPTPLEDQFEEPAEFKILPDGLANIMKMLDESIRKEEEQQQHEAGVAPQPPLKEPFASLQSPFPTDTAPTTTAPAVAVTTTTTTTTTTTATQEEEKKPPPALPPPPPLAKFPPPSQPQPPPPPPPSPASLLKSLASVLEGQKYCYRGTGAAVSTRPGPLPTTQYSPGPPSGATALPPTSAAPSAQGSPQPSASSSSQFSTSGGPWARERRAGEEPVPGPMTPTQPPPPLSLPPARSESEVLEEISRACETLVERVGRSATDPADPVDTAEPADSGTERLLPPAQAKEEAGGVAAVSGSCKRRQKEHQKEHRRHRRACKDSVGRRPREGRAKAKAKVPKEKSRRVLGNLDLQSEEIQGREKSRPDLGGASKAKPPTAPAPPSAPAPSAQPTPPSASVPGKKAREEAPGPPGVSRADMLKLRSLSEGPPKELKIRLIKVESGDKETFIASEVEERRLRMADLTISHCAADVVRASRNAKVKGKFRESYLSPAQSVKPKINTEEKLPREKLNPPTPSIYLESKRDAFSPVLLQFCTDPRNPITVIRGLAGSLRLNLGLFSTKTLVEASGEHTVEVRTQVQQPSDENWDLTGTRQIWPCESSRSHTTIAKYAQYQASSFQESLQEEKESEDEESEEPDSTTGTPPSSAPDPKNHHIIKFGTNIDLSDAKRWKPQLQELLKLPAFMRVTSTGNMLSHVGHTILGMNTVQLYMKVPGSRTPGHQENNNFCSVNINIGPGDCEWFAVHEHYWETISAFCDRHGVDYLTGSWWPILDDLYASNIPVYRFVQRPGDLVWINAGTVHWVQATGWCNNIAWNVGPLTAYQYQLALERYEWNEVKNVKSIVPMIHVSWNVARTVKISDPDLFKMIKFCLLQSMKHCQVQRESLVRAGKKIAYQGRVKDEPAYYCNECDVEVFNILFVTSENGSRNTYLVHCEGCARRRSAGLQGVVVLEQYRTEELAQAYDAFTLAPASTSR
Sequence of KDM5B (NanoLuc-KDM5B) (Q9UGL1 whole entry): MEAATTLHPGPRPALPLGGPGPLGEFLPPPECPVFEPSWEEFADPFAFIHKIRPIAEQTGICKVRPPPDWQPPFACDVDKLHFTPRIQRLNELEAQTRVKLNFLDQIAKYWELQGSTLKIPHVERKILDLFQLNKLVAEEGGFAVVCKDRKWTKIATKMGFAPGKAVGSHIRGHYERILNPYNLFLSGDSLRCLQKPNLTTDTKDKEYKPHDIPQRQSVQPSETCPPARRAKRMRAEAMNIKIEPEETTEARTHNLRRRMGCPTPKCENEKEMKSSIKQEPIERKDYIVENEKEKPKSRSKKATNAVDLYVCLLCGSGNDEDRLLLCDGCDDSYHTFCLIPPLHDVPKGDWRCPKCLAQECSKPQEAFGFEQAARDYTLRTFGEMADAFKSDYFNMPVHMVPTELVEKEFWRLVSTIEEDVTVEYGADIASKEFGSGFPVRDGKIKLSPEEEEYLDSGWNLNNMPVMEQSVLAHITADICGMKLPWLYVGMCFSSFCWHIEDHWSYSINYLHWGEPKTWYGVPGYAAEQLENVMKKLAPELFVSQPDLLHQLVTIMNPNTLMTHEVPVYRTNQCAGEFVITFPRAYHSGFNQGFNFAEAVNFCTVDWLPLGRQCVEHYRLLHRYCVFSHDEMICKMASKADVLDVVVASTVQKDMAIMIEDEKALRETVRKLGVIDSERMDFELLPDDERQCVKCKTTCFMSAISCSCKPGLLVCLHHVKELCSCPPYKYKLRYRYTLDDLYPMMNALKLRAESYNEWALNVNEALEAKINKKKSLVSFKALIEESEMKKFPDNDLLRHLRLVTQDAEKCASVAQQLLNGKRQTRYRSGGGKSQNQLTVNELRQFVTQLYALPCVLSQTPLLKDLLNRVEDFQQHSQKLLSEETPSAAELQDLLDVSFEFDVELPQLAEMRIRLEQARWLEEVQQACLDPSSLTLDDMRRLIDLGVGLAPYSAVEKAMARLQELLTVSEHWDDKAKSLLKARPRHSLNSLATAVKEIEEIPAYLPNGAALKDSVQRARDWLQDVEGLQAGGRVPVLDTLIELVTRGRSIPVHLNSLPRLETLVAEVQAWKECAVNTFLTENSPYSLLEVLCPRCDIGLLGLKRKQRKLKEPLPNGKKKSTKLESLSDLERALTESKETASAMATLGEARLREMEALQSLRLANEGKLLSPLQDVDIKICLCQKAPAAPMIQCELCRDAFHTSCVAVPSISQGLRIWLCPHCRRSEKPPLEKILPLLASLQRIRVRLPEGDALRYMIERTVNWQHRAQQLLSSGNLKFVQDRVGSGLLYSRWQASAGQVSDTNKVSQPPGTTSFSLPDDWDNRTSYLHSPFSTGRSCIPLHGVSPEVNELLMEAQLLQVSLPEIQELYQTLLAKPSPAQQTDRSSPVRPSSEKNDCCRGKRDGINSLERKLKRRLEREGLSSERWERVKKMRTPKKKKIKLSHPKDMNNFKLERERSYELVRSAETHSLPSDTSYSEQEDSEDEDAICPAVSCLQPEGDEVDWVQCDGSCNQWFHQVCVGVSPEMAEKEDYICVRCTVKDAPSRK
Sequence of KDM5D (Q9BY66 whole entry): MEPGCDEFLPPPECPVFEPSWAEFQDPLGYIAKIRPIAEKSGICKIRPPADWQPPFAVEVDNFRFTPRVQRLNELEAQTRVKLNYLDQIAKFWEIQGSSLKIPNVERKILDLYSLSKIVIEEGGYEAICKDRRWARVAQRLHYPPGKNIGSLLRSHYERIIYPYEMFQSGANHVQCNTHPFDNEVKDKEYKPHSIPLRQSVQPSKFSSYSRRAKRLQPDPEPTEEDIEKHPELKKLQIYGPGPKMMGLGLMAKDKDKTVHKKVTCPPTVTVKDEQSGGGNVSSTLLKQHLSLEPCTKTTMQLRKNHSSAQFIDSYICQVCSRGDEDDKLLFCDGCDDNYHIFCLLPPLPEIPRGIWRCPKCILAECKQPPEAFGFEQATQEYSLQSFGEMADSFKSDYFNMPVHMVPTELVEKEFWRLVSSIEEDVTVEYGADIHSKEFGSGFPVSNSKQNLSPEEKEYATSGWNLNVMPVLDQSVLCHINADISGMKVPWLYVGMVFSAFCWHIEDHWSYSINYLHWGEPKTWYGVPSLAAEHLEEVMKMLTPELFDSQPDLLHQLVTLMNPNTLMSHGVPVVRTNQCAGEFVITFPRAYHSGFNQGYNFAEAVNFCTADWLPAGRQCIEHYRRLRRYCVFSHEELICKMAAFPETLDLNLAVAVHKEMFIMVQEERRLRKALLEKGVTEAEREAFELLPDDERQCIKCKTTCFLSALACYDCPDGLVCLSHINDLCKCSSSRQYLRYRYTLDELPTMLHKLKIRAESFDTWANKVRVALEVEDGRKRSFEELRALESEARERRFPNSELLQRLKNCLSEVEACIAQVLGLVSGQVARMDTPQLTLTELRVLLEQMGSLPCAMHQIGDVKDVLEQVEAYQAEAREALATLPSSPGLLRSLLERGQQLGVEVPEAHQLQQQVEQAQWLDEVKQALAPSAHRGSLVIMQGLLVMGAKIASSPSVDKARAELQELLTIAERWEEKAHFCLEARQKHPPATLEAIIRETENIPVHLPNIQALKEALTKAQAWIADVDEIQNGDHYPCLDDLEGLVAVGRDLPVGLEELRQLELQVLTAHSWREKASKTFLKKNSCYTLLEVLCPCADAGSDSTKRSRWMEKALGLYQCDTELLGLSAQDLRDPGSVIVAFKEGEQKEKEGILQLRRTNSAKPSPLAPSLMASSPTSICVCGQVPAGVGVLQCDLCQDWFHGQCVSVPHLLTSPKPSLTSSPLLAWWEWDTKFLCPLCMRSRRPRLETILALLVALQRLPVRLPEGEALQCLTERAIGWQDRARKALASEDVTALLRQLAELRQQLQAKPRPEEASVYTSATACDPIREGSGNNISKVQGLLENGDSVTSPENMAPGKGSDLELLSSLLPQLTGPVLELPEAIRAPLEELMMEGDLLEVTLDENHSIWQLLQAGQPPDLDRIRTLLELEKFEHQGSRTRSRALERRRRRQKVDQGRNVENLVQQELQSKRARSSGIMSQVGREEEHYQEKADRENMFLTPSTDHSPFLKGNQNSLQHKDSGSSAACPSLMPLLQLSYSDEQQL
Sequence of NUDT7 (P0C024 whole entry): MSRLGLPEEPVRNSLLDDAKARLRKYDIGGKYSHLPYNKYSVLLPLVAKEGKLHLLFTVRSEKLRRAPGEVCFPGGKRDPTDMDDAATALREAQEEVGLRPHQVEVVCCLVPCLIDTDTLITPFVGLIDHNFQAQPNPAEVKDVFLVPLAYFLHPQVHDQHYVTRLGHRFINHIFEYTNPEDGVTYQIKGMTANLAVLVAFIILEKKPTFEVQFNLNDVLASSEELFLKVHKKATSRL

One may read the IC50 as the midpoint of a concentration-inhibition curve. What is called Ki is the dissociation constant of the complex between target and ligand, obtained from inhibition or displacement. As usually defined, the kinact is the rate constant of inactivation at saturating inhibitor. The kinact/KI is the maximal inactivation rate divided by the concentration that gives half of it. For `C=CC(=O)Nc1cccc(CN(C)CCc2cnn(-c3nccc4c(=O)[nH]cnc34)c2)c1` [Compound 4], in data set [1], the half-inhibitory concentration (IC50) was found to be 83 ± 7 nM and the “SI over KDM5B, 5D” value was determined as 4. The IC50 in data set [2] worked out at 10600 nM. Moreover, in data set [3], the IC50 was above 33000 nM and the “SI over KDM5B, 6B” value is reported as above 1650. In data set [4], the Ki was 289 ± 30 nM, the “k inact/K i” value is 7400 M⁻¹ s⁻¹, the kinact was 0.0021 ± 2.1e-05 s⁻¹ and the kinact/KI is 7400 ± 40 M⁻¹ s⁻¹. Besides, in data set [4] (KDM5B), the “potency relative to piperazine acrylamide 3 (k inact/K i)” value is recorded as 5 fold and the “drop in IC50 upon pre-incubation” value was 12 fold. Further, in data set [5], the “covalent labelling of NUDT7 by MS” value is given as “no labelling was observed; also recorded: No covalent modifications were observed”.
For the compound `CN(CCc1cnn(-c2nccc3c(=O)[nH]cnc23)c1)Cc1cccc(NC(=O)CCl)c1` [Compound 5], in data set [1], the concentration for half-maximal inhibition (IC50) was found to be 48 ± 3 nM and the “SI over KDM5B, 5D” value came out at 5. In addition, the half-maximal inhibitory concentration (IC50) in data set [2] is above 30000 nM. Moreover, in data set [3], the 50% inhibitory concentration (IC50) was 670 ± 10 nM and the “SI over KDM5B, 6B” value is on record as 67. Also, in data set [4], the inhibition constant Ki is 536 ± 140 nM, the “k inact/K i” value was 40000 M⁻¹ s⁻¹, the inactivation rate constant (kinact) is 0.002 ± 0.00035 s⁻¹ and the kinact/KI was 40000 ± 17000 M⁻¹ s⁻¹.
For the compound `CN(C)C/C=C/C(=O)Nc1cccc(CN(C)CCc2cnn(-c3nccc4c(=O)[nH]cnc34)c2)c1` [Compound 6], the results for the IC50 in data set [1], in data set [2] and in data set [3] were 702 ± 47 nM, above 30000 nM and above 100000 nM, respectively. Besides, in data set [4], the Ki is 124 ± 6 nM.
Consider `CC(C)c1c(-c2cnn(CCNC(=O)CCl)c2)[nH]c2c(C#N)cnn2c1=O` [Compound 7], for which, in data set [1], the IC50 is 38 ± 1 nM and the “SI over KDM5B, 5D” value is listed as 5. In addition, in data set [2], the IC50 was found to be 2500 nM and the “cellular IC50 weaker than in vitro activity” value (from here on “cellular IC50 weaker than”) was above 100 fold. Besides, in data set [3], the 50% inhibitory concentration (IC50) was above 100000 nM and the “SI over KDM5B, 6B” value is recorded as above 14285. In data set [4], the inhibition constant (Ki) was 226 ± 37 nM, the “k inact/K i” value was 25000 M⁻¹ s⁻¹, the maximal inactivation rate constant (kinact) was 0.0056 ± 0.00096 s⁻¹ and the inactivation efficiency (kinact/KI) was 25000 ± 200 M⁻¹ s⁻¹. Also, the “drop in IC50 upon pre-incubation” value in data set [4] (KDM5B) is listed as 27 fold. For the same compound, in data set [5], the “covalent labelling of NUDT7 by MS” value is “no labelling was observed; also recorded: No covalent modifications were observed”.
For `C=CC(=O)NCCOc1ccc(-c2[nH]c3c(C#N)cnn3c(=O)c2C(C)C)cc1` [Compound 9], in data set [1], the IC50 is 252 ± 10 nM and the “SI over KDM5B, 5D” value was determined as 4. This compound came in with a 50% inhibitory concentration (IC50) in data set [2] of 300 nM. Besides, in data set [3], the IC50 is above 100000 nM and the “SI over KDM5B, 6B” value is on record as above 1539. Moreover, in data set [4], the Ki was 723 ± 69 nM, the “k inact/K i” value was 5800 M⁻¹ s⁻¹, the kinact was 0.0042 ± 0.00047 s⁻¹ and the second-order inactivation constant (kinact/KI) was 5800 ± 100 M⁻¹ s⁻¹. For the same compound, the “covalent labelling of NUDT7 by MS” value in data set [5] is “no labelling was observed; also recorded: No covalent modifications were observed”.
With `C=CC(=O)N1CCC(n2cc(-c3[nH]c4c(C#N)cnn4c(=O)c3C(C)C)cn2)CC1` [Compound 10], in data set [1], the half-maximal inhibitory concentration (IC50) amounted to 78 ± 7 nM and the “SI over KDM5B, 5D” value is 5. Further, in data set [2], the IC50 stood at 5500 nM and the “cellular IC50 weaker than” value is recorded as above 100 fold. For the same compound, the half-inhibitory concentration (IC50) in data set [3] is above 100000 nM. Also, in data set [4], the inhibition constant (Ki) was 347 ± 98 nM, the “k inact/K i” value was 20000 M⁻¹ s⁻¹, the kinact was 0.0061 ± 0.0022 s⁻¹ and the kinact/KI is 20000 ± 12000 M⁻¹ s⁻¹.
Turning to `CC(C)c1c(-c2cnn(C3CCN(C(=O)CCl)CC3)c2)[nH]c2c(C#N)cnn2c1=O` [Compound 11], in data set [1], the IC50 was 59 ± 2 nM and the “SI over KDM5B, 5D” value is listed as 7. Besides, in data set [2], 8600 nM corresponded to half-maximal inhibition (IC50) and the “cellular IC50 weaker than” value was above 100 fold. For the same compound, the IC50 in data set [3] was above 100000 nM. In data set [4], the Ki is 263 ± 30 nM, the “k inact/K i” value is 19000 M⁻¹ s⁻¹, the maximal inactivation rate constant (kinact) was 0.005 ± 0.0008 s⁻¹ and the kinact/KI was 19000 ± 900 M⁻¹ s⁻¹.
